Publication PMC6295574, “Molecular and Functional Characterization of Odorant Binding Protein 7 From the Oriental Fruit Moth Grapholita molesta (Busck) (Lepidoptera: Tortricidae)” (Frontiers in Physiology, 2018)
“Also recorded” adds a separate entry of the source. Read-outs that look alike come from different tables or passages of the source.

Legend:
[1] = target: T1, rGmolOBP7 (recombinant GmolOBP7) (Grapholita molesta, UniProt A0A2R4SBC1); test: biochemical; format: binding; conditions: for binding to rGmolOBP7 (in words): competitive binding, 1-NPN probe
Method: (§1) Fluorescence intensity was detected on a spectrophotofluorometer (F-4500, Hitachi, Japan) at room temperature using a quartz cuvette with a 1 cm light path. The silt width of excitation and emissions were all 10 nm. The fluorescence probe 1-NPN was excited at 337 nm and the emission spectra were recorded between 370 and 550 nm. Four sex pheromone components and 31 volatiles, derived from peach shoots and pear fruits, were selected for binding assays (Table 2). The probe 1-NPN and tested ligands were all dissolved in spectrophotometric-grade methanol to obtain a 1 mM stock solution.
The corresponding florescence intensity values were collected as three independent measurements. The binding constant (K1−NPN) of 1-NPN to rGmolOBP7 was calculated using GraphPad Prism 5 software (GraphPad Software, Inc.) via nonlinear regression for a unique site of binding.

[2] = tested on: Grapholita molesta antennae; test: EAG responses of GmolOBP7-dsRNA-injected moths to stimulants; conditions: stimulant 10 mg/mL in liquid paraffin; for EAG response of dsGmolOBP7-injected male moths vs dsGFP-injected and non-injected controls: 1-day-old males; for EAG response of dsRNA-treated moths vs non-injected control: male and female moths, 1-day-old
Method: Based on the expression patterns observed at different insect stages, 5-day-old G. molesta pupae (later-pupae) were selected to receive a dsRNA microinjection. The conjunctivum between the prothorax and mesothorax, the conjunctivum between the mesothorax and metathorax and the conjunctivum between the thorax and abdomen were initially selected as putative injection sites. Then, 39, 69, and 138 nL of RNase-free H2O were injected into different conjunctiva, respectively. A total of 69 nL (approximately 241.5 ng dsRNA) of dsGmolOBP7 or dsGFP was injected into the appropriate injection sites of each 5-day-old pupa, by using a PL1-100 Pico-Injector (Harvard Apparatus, Holliston, MA, USA) operated by an MP-255 Micromanipulator (Sutter, Novato, CA, USA). Each type of dsRNA was injected into 600 male and 600 female moths. The heads (with antenna) of 1-, 2-, 3-, and 4 day-old adults were dissected and immediately stored at −80°C prior to use. The total RNA and first-strand cDNA were obtained in accordance with previous methods. The specimens were used for qRT-PCR analysis to test the reduction in GmolOBP7 transcription. Experiments were performed with three biological replicates and three technical replicates.
EAG responses of dsRNA-injected (including dsGmolOBP7 and dsGFP) moths and non-injected controls, to sex pheromones and host plant volatiles were detected using Electroantennography. All stimulants were diluted with liquid paraffin to the final concentration of 10 mg/mL. Liquid paraffin and cis-3-hexenyl acetate were used as the blank and reference control, respectively. Both ends of adult antennae were cut and blocked with a drop of Spectra® 360 Electrode Gel (Parker Laboratories, Fairfield, USA). The basal section was connected to the reference electrode while the distal end was linked to the recording electrode. A filtered humidified air stream was delivered by a Syntech stimulus controller (CS55 model, Syntech, Germany) at a constant flow rate of 50 cm/s, and the time of stimuli flow was 0.5 s. Filter paper strips (0.6 cm × 4.5 cm) were dripped with 15 μL of chemical solution as a stimulus source and inserted into a 1.5 mL micropipet tip. A set of stimulants consisted of four sex pheromones and five host-plant volatiles which can be strongly bound with rGmolOBP7. Each antenna measured the group of randomly arranged stimulants described above. The antennae were stimulated one time with liquid paraffin and cis-3-hexenyl acetate and dissolved in solvent, before and after each group stimulation, in order to ensure the tested antenna were activated and the connecting pipe was not contaminated by stimulants. Recordings per stimulant were taken and the antennal responses were recorded. Eight male and female antennae were measured for each stimulant. The paired t-test was used to determine whether the difference in EAG values were significant between the dsRNA injected moths (dsGmolOBP7 and dsGFP) and the non-injected control. All the data were analyzed using SPSS 18.0 software (SPSS Inc., Chicago, IL, USA).

[3] = tested on: male antennae of G. molesta; set-up: method as in Cardé et al., 1975, 1979; conditions: ref Cardé et al., 1975, 1979; cited from earlier work
[4] = target: T1, rGmolOBP7 (recombinant GmolOBP7); test: Binding of fluorescence probe 1-NPN to rGmolOBP7 (binding curve, Scatchard plot); conditions: 2 μM protein in 20 mM Tris-HCl pH 7.4, 1-NPN up to 18 μM; read-out: dissociation constant (Kd) of 1-NPN
Method: as §1, with “solution. The binding affinity of rGmolOBP7 with 1-NPN was measured by adding aliquots of 1-NPN to a 2 μM protein solution (diluted with 20 mM Tris-HCl pH 7.4) to final concentrations of 0 to 18 μM.” for “solution.”
The corresponding florescence intensity values were collected as three independent measurements. The binding constant (K1−NPN) of 1-NPN to rGmolOBP7 was calculated using GraphPad Prism 5 software (GraphPad Software, Inc.) via nonlinear regression for a unique site of binding. The dissociation constant (Ki) of each ligands competitive binding to rGmolOBP7, were calculated from the corresponding IC50, by using the equation Ki = [IC50]/(1+[1-NPN]/K1−NPN), where [1-NPN] is the free concentration of 1-NPN, and K1−NPN is the dissociation constant of the complex protein/1-NPN.

[5] = 2 μM rGmolOBP7 and 2 μM 1-NPN, 20 mM Tris-HCl pH 7.4, room temperature, three independent measurements, read-out: IC50
[6] = calculated from IC50 by Ki = [IC50]/(1+[1-NPN]/K1-NPN), read-out: Ki

T1 sequence (A0A2R4SBC1 entry or part of it): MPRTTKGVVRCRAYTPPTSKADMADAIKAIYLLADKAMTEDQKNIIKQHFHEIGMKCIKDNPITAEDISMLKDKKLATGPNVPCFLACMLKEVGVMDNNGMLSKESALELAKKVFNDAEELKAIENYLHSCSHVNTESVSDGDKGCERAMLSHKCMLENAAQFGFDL

## C=CC(C)(O)CCC=C(C)CCC=C(C)C (mixture of isomers) [Nerolidol]
[1]; [5]
  IC50: > 35 µM
[1]; [6]
  Ki: > 35 µM

## CCCCCCCCCCO [1-Decanol]
[1]
  IC50: > 35 µM
  Ki: > 35 µM

## CCCCCCCCCCCCO [1-Dodecanol]
[1]; [5]
  IC50: 10.7 ± 0.85 µM
[1]; [6]
  Ki: 7.48 µM
[2]; 15 μL
  EAG response of dsGmolOBP7-injected male moths vs dsGFP-injected and non-injected controls: significantly reduced
[2]; 15 μL, listed as 12:OH
  EAG response of dsGmolOBP7-injected male moths vs dsGFP-injected and non-injected controls: significantly decreased
[3]
  EAG response of male antennae: weak EAG response

## CCCCCCCCCCCCCCCCO [1-Hexadecanol]
[1]; [5]
  IC50: > 35 µM
[1]; [6]
  Ki: > 35 µM

## CCCCCCO [1-Hexanol]
[1]
  IC50: 24.9 ± 1.28 µM
[1]; [6]
  Ki: 17.4 µM

## c1ccc(Nc2cccc3ccccc23)cc1 [1-NPN, N-phenyl-1-naphthylamine]
[4]
  Kd: 2.3 µM

## CCCCCCCCCCCCCCO [1-Tetradecanol]
[1]
  IC50: > 35 µM
  Ki: > 35 µM

## C=C1[C@@H]2CC[C@@H](C2)C1(C)C [(-)-Camphene]
[1]; [5]
  IC50: > 35 µM
[1]; [6]
  Ki: > 35 µM

## CCC/C=C/C=O [(E)-2-Hexenal]
[1]
  IC50: 24.4 ± 1.53 µM
  Ki: 17 µM

## CCC/C=C/CCCCCCCOC(C)=O [(E)-8-dodecenyl acetate]
[1]; [5]
  IC50: > 35 µM
[1]; [6]
  Ki: > 35 µM
[1]
  binding to rGmolOBP7 (in words): did not bind
[2]
  EAG response of dsRNA-treated moths vs non-injected control: not significantly different

## CC/C=C\CCO [(Z)-3-Hexen-1-ol]
[1]
  IC50: 17.6 ± 0.52 µM
  Ki: 12.3 µM

## CC/C=C\CCOC(C)=O [(Z)-3-Hexenyl acetate]
[1]; [5]
  IC50: 19.6 ± 0.27 µM
[1]; [6]
  Ki: 13.7 µM
[2]
  EAG response of dsRNA-treated moths vs non-injected control: not significantly different

## CCC/C=C\CCCCCCCOC(C)=O [(Z)-8-dodecenyl acetate]
[1]
  binding to rGmolOBP7 (in words): did not bind
[2]
  EAG response of dsRNA-treated moths vs non-injected control: not significantly different

## CCC/C=C\CCCCCCCO [(Z)-8-dodecenyl alcohol]
[1]; [5]
  IC50: > 35 µM
[1]; [6]
  Ki: > 35 µM
[1]
  binding to rGmolOBP7 (in words): did not bind
[2]
  EAG response of dsRNA-treated moths vs non-injected control: not significantly different

## O=Cc1ccccc1 [Benzaldehyde]
[1]
  IC50: 20.2 ± 0.27 µM
  Ki: 14.1 µM

## N#Cc1ccccc1 [Benzonitrile]
[1]
  IC50: 17.9 ± 1.29 µM
  Ki: 12.5 µM

## OCc1ccccc1 [Benzyl alcohol]
[1]
  IC50: > 35 µM
  Ki: > 35 µM

## CCCCOC(C)=O [Butyl acetate]
[1]
  IC50: 18.1 ± 1.57 µM
  Ki: 12.6 µM

## CCCCOC(=O)CCC [Butyl butyrate]
[1]; [5]
  IC50: 16.3 ± 1.71 µM
[1]; [6]
  Ki: 11.3 µM

## CCCCCC(=O)OCCCC [Butyl hexanoate]
[1]; [5]
  IC50: 24.4 ± 0.77 µM
[1]; [6]
  Ki: 17 µM

## CCCCCCCCCC=O [Decanal]
[1]; [5]
  IC50: 18.2 ± 1.27 µM
[1]; [6]
  Ki: 12.7 µM

## CCCCCCC=O [Heptanal]
[1]
  IC50: 15.7 ± 0.64 µM
[1]; [6]
  Ki: 10.9 µM

## CCCCCC=O [Hexanal]
[1]
  IC50: 27.4 ± 1.59 µM
  Ki: 19.1 µM

## CCCCCCCCCCCC=O [Lauraldehyde]
[1]; [5]
  IC50: 6.18 ± 0.43 µM
[1]; [6]
  Ki: 4.31 µM
[2]
  EAG response of dsRNA-treated moths vs non-injected control: not significantly different

## CCC(C)=CCCC(C)=CC#N [Lemonile]
[1]; [5]
  IC50: > 35 µM
[1]; [6]
  Ki: > 35 µM

## C=CC(C)(O)CCC=C(C)C (stereo not drawn) [Linalool]
[1]
  IC50: 21.7 ± 1.11 µM
  Ki: 15.1 µM

## CC/C=C\CC1C(=O)CCC1CC(=O)OC (stereo not drawn) [Methyl jasmonate]
[1]; [5]
  IC50: 18.7 ± 0.22 µM
[1]; [6]
  Ki: 13 µM

## CCCCCCCCCCCCCC(=O)OC [Methyl myristate]
[1]; [5]
  IC50: > 35 µM
[1]; [6]
  Ki: > 35 µM

## CCCCCCCCCCCCCCCC(=O)OC [Methyl palmitate]
[1]; [5]
  IC50: > 35 µM
[1]; [6]
  Ki: > 35 µM

## COC(=O)c1ccccc1O [Methyl salicylate]
[1]
  IC50: 14.1 ± 0.22 µM
  Ki: 9.81 µM

## CCCCCCCCC=O [Nonanal]
[1]; [5]
  IC50: 28.6 ± 3.38 µM
[1]; [6]
  Ki: 19.9 µM

## CCCCC/C=C\C=C\C(=O)OCC [Pear ester, Ethyl (E, Z)-2,4-decadienate]
[1]; [5]
  IC50: 3.62 ± 0.25 µM
[1]; [6]
  Ki: 2.52 µM
[2]; 1-day-old females, 15 μL
  EAG response of dsGmolOBP7-injected female moths vs dsGFP-injected and non-injected controls: significantly reduced; also recorded: significantly decreased
[2]; 15 μL
  EAG response of dsGmolOBP7-injected male moths vs dsGFP-injected and non-injected controls: significantly reduced; also recorded: significantly decreased

## CCCCCCCCCCCCCC=O [Tetradecanal]
[1]; [5]
  IC50: > 35 µM
[1]; [6]
  Ki: > 35 µM

## C=C/C(C)=C/CCC(=C)C [α-Ocimene]
[1]; [5]
  IC50: 11.1 ± 0.2 µM
[1]; [6]
  Ki: 7.75 µM
[2]
  EAG response of dsRNA-treated moths vs non-injected control: not significantly different

## CC1=CCC2CC1C2(C)C (stereo not drawn) [α-Pinene]
[1]
  IC50: 17.1 ± 1.2 µM
  Ki: 11.9 µM
[2]
  EAG response of dsRNA-treated moths vs non-injected control: not significantly different

## C=C1CC/C=C(\C)CC[C@@H]2[C@@H]1CC2(C)C [β-Caryophyllene]
[1]
  IC50: > 35 µM
  Ki: > 35 µM
